pEC50: −log10 of the molar value. Counter-ions that a name gives are not always drawn. Like-named read-outs stand apart in the source and are kept apart here.
How the values were obtained:
[1] = system: colon carcinoma HT-29; assay: In vitro proliferation assay (sulforhodamine B), HT-29; type: cell-based, human
Method: (§1) The possible antitumoral activity of these new compounds was analyzed by the effects exerted on the proliferation of five human tumor cell lines of different histotype. Therefore, the modifications on cell viability and replication determined by the treatment with each single compound were evaluated. The following human tumor cell lines triple-negative breast cancer MDA-MB231, colon carcinoma HT-29, glioblastoma multiforme U-87 MG, tongue squamous cell carcinoma CAL27 and pharynx squamous cell carcinoma FaDu were treated for 24 and 48 h with 10, 20, 30, 40, 50 and 60 μM of each single compound.
(§2) Anti-proliferative activities are reported in Table 2 (compounds 1b–g, 3) and Table 3 (compounds 2a–f) in comparison with reference compound 1a.
(§3) The following human tumor cell lines were utilized in the present study: glioblastoma multiforme U-87 MG, triple-negative breast cancer MDA-MB231, colon carcinoma HT-29, tongue squamous cell carcinoma CAL27 and pharynx squamous cell carcinoma FaDu, all of which obtained from the American Type Culture Collection (Manassas, VA, USA). In addition, human dermal fibroblast primary cultures (HF) used as control of non-transformed cells, had been previously established in our laboratory.
(§4) The cells were grown at 37 °C and 5% CO2 in Dulbecco’s modified Eagle’s medium or RPMI 1640 medium supplemented with 10% fetal bovine serum, 2 mM glutamine and 50 U/mL penicillin-streptomycin (Sigma-Aldrich).
(§5) All compounds were solubilized in dimethylsulfoxide (DMSO) (Sigma) for a 10 mM stock solution and utilized to final concentrations from 100 nM to 60 μM for 24 and 48 h. Control cells were treated with equivalent amounts of DMSO in every experiment.
(§6) To determine cytotoxicity, a sulforhodamine B colorimetric assay was performed. Cells (1.5 × 10^4) were plated in a 96-well plate, grown for 24 h and then treated with different concentrations of each compound for 24 and 48 h at 37 °C. Cells were then fixed with 50% trichloroacetic acid for 1 h at 4 °C and stained for 30 min at room temperature with 0.4% sulforhodamine B in 1% acetic acid. Excess dye was removed by washing four times with 1% acetic acid. Protein-bound dye was dissolved in 10 mM Tris (pH 10), and optical density was determined at 510 nm using a microplate reader. Each experiment was performed three times and the media was calculated.

[2] = system: glioblastoma multiforme U-87 MG; assay: In vitro proliferation assay (sulforhodamine B), U-87 MG; type: cell-based, human
Method: as §1, §2, §3, §4, §5, §6

[3] = system: triple-negative breast cancer MDA-MB231; assay: In vitro proliferation assay (sulforhodamine B), MDA-MB231; type: cell-based, human
Method: as §1, §2, §3, §4, §5, §6

[4] = system: tongue squamous cell carcinoma CAL27; assay: In vitro proliferation assay (sulforhodamine B), CAL27; type: cell-based, human
Method: as §1, §2, §3, §4, §5, §6

[5] = system: pharynx squamous cell carcinoma FaDu; assay: In vitro proliferation assay (sulforhodamine B), FaDu; type: cell-based, human
Method: as §1, §2, §3, §4, §5, §6

[6] = Cytotoxicity on normal cells (sulforhodamine B), HF; type: cell-based, human; conditions: human, human dermal fibroblast primary cultures (HF), 48 h
Method: as §3, §4, §5, §6

[7] = system: five human tumor cell lines (HT-29, U-87 MG, MDA-MB231, CAL27, FaDu); assay: In vitro proliferation assay, summary over all tested tumor cell lines; type: cell-based; conditions: for pEC50: Homo sapiens, all tested tumor cell lines, read-out: EC50s over the tested cell lines
Method: as §1, §2, §3, §4, §5, §6

[8] = system: human dermal fibroblasts (HF); assay: Cytotoxicity on normal cells (sulforhodamine B), HF; type: cell-based
Method: as §3, §4, §5, §6

[9] = Homo sapiens, HT-29, 48 h, 48 h
[10] = Homo sapiens, MDA-MB-231, 48 h, 48 h
[11] = Homo sapiens, CAL-27, 48 h, 48 h
[12] = Homo sapiens, HT-29, 24 h, 24 h
[13] = Homo sapiens, CAL-27, 24 h, 24 h

SMILES | pEC50 [1, 9] | pEC50 ([2]; Homo sapiens, U-87 MG, 48 h) | pEC50 [3, 10] | pEC50 [4, 11] | pEC50 ([5]; Homo sapiens, FaDu, 48 h) | CC50 at 48 h [6] | pEC50 ([7]; time not given) | pEC50 [1, 12] | other results
CCN(CC)CCCNc1cc(N)nc(Nc2cccc(F)c2)n1 [Compound 1b, N^4-(3-(Diethylamino)propyl)-N^2-(3-fluorophenyl)pyrimidine-2,4,6-triamine] | 4.53 | 4.33 | 4.45 | 4.70 | 4.36 | 88 µM |  |  | pEC50 ([4]; 48 h): 4.69
CCN(CC)CCCNc1cc(N)nc(Nc2cccc(OC)c2)n1 [Compound 1c, N^4-(3-(Diethylamino)propyl)-N^2-(3-methoxyphenyl)pyrimidine-2,4,6-triamine] | 4.24 | < 4.22 | 4.15 | 4.24 | 4.15 |  | < 4.22 |  | 
CCN(CC)CCCNc1cc(N)nc(Nc2cccc([N+](=O)[O-])c2)n1 [Compound 1d, N^4-(3-(Diethylamino)propyl)-N^2-(3-nitrophenyl)pyrimidine-2,4,6-triamine] | 4.39 | 4.26 | 4.31 | 4.45 | 4.33 | 97 µM |  |  | 
CCCN(CCC)c1cc(N)nc(Nc2cccc(Cl)c2)n1 [Compound 1e, N^2-(3-chlorophenyl)-N^4,N^4-dipropylpyrimidine-2,4,6-triamine] |  |  |  |  |  |  |  |  | pEC50 ([1]; 48 h): 4.55; pEC50 ([2]; 48 h): 4.34; pEC50 ([3]; 48 h): 4.47; pEC50 ([4]; 48 h): 4.61; pEC50 ([5]; 48 h): 4.53; CC50 ([8]; 48 h): 68 µM; cytotoxic activity on normal somatic cells, not cytotoxic up to [8]: > 60 µM; pEC50 ([7]; 48 h of treatment): 4.35 to 4.60
CCCN(CCC)c1cc(N)nc(Nc2cccc(Cl)c2)n1 [Compound 1e-HCl, N^2-(3-chlorophenyl)-N^4,N^4-dipropylpyrimidine-2,4,6-triamine hydrochloride] | 4.53 | 4.44 | 4.30 | 4.52 | 4.40 | > 60 µM |  |  | 
CCCN(CCC)c1cc(N)nc(Nc2ccc(Cl)cc2F)n1 [Compound 1f, N^2-(4-Chloro-2-fluorophenyl)-N^4,N^4-dipropylpyrimidine-2,4,6-triamine] | 4.30 | < 4.22 | 4.24 | 4.26 | 4.17 | 98 µM | 4.12 to 4.30 |  | 
CN1CCN(c2cc(N)nc(Nc3cccc(Cl)c3)n2)CC1 [Compound 1g, N^2-(3-Chlorophenyl)-6-(4-methylpiperazin-1-yl)pyrimidine-2,4-diamine] | 4.22 | < 4.22 | 4.26 | 4.22 | 4.06 |  |  |  | 
CCN(CC)CCCNc1cc(N)nc(N(Cc2ccc(F)cc2)c2cccc(Cl)c2)n1 [Compound 2a, N^2-(3-chlorophenyl)-N^4-(3-(diethylamino)propyl)-N^2-(4-fluorobenzyl)pyrimidine-2,4,6-triamine] | 5.27 | 5.12 | 5.10 | 5.37 | 5.07 | 50.2 µM | 5.10 to 5.40 | 4.99 | pEC50 ([2]; Homo sapiens, U-87 MG, 24 h): 4.66; pEC50 ([3]; Homo sapiens, MDA-MB-231, 24 h, 24 h): 4.74; pEC50 [4, 13]: 5.01; pEC50 ([5]; Homo sapiens, FaDu, 24 h): 4.58; negative regulation of growth (cell viability, Figure 3) ([8]; 1, 10, 20, 50 μM, 24 h and 48 h, normal fibroblasts): only weakly significant and exclusively at high concentrations at 48 h; negative regulation of growth (cell viability, Figure 3) ([7]; 1, 10, 20, 50 μM, 24 h and 48 h, each tumor cell line): significant at various concentrations and times; pEC50 ([7]; 24 h of treatment): 4.59 to 5.00; pEC50 ([7]; 48 h of treatment): 5.10 to 5.30; fold more active than 1a ([7]; vs hit 1a (RDS 3442), all tested cell lines, 48 h of treatment): 4–13 fold
CCN(CC)CCCNc1cc(N)nc(N(Cc2ccc(F)cc2)c2cccc(F)c2)n1 [Compound 2b, N^4-(3-(diethylamino)propyl)-N^2-(4-fluorobenzyl)-N^2-(3-fluorophenyl)pyrimidine-2,4,6-triamine] | 4.98 | 4.75 | 5.14 | 5.29 | 4.62 | 54.7 µM |  | 4.69 | 
CCN(CC)CCCNc1cc(N)nc(N(Cc2ccc(F)cc2)c2cccc(OC)c2)n1 [Compound 2c, N^4-(3-(diethylamino)propyl)-N^2-(4-fluorobenzyl)-N^2-(3-methoxyphenyl)-pyrimidine-2,4,6-triamine] | 4.74 | 4.70 | 4.57 | 4.83 | 4.74 | 50.3 µM | 4.46 to 4.82 | 4.46 | pEC50 ([5]; 48 h): 4.74; folds more active than 3 ([5]; FaDu, 48 h of treatment, 2c vs 3): about 2.5 folds
CCN(CC)CCCNc1cc(N)nc(N(Cc2ccc(F)cc2)c2cccc([N+](=O)[O-])c2)n1 [Compound 2d, N^4-(3-(Diethylamino)propyl)-N^2-(4-fluorobenzyl)-N^2-(3-nitrophenyl)pyrimidine-2,4,6-triamine] | 4.90 | 4.52 | 4.76 | 4.99 | 4.69 | 55.2 µM |  | 4.60 | 
CCCN(CCC)c1cc(N)nc(N(Cc2ccc(F)cc2)c2cccc(Cl)c2)n1 [Compound 2e, N^2-(3-Chlorophenyl)-N^2-(4-fluorobenzyl)-N^4,N^4-dipropylpyrimidine-2,4,6-triamine] | < 4.22 | < 4.22 | < 4.22 | 4.23 | < 4.22 |  | < 4.22 |  | 
CCCN(CCC)c1cc(N)nc(N(Cc2ccc(F)cc2)c2ccc(Cl)cc2F)n1 [Compound 2f, N^2-(4-Chloro-2-fluorophenyl)-N^2-(4-fluorobenzyl)-N^4,N^4-dipropylpyrimidine-2,4,6-triamine] | 4.52 | < 4.22 | 4.23 | 4.35 | < 4.22 |  |  |  | pEC50 ([4]; 48 h): 4.34
COc1cccc(Nc2cc(N)nc(Nc3cccc(OC)c3)n2)c1 [Compound 3, N^2,N^4-bis(3-Methoxyphenyl)pyrimidine-2,4,6-triamine] | 4.93 | 4.64 | 4.99 | 4.98 |  | 65 µM |  | 4.55 | pEC50 [4, 13]: 4.69; pEC50 ([5]; Homo sapiens, FaDu, 24 h): 4.38; cytotoxic activity on normal somatic cells, not cytotoxic up to [8]: > 60 µM; pEC50 ([7]; 48 h of treatment): ≥ 4.70
